Each block holds one molecule with its values, some of them ahead of it.
Experiments:
EGFR [1] = target: EGFR (UniProt P00533)
EGFR (human) [2] = target: EGFR (human) (UniProt P00533)
EGFR [3] = target: EGFR (UniProt P00533); remark: listed apart in the source
EGFR [4] = target: EGFR (UniProt P00533); remark: listed apart in the source
EGFR (mouse) = EGFR (mouse) (UniProt P00533); conditions: mk
EGFR (murine) [5] = target: EGFR (murine) (UniProt P00533); conditions: nih3t3
EGFR (Balb/c mice) = EGFR (Balb/c mice) (UniProt P00533)
EGFR (human) [6] = target: EGFR (human) (UniProt P00533); remark: listed apart in the source
EGFR (human) [7] = target: EGFR (human) (UniProt P00533); conditions: A431
MAPK14 (human) = MAPK14 (human) (UniProt Q16539); test: Inhibition of TNF-alpha Production in PBMC Cells
CDK2 = CDK2 (UniProt P24941); test: Enzyme Assay; conditions: concentration not given here
MAPK14 [8] = target: MAPK14 (UniProt Q16539); test: p38-alpha Kinase Inhibition; conditions: concentration not given here
ROCK2 = ROCK2 (UniProt O75116); test: ROCK2 Kinase Inhibition; conditions: concentration not given here
EGFR [9] = target: EGFR (UniProt P00533); remark: listed apart in the source
ROCK2 (human) [10] = target: ROCK2 (human) (UniProt O75116); test: Assessment of ROCK2 Kinase Activity (Fluorescence Polarization Assay)
PIK3CA (human) = PIK3CA (human) (UniProt P42336); test: Assessment of PIK3CA Kinase Activity in NZB5 Cells
CDK2 (human) [11] = target: CDK2 (human) (UniProt P24941); test: Enzyme Assay
CDK2 (human) [12] = target: CDK2 (human) (UniProt P24941); test: Enzyme Assay; remark: listed apart in the source
MAPK14 [13] = target: MAPK14 (UniProt Q16539); test: p38 Kinase Inhibition
MAPK14 [14] = target: MAPK14 (UniProt Q16539); test: p38 MAP kinase Inhibition Assay
EGFR [15] = target: EGFR (UniProt P00533); remark: listed apart in the source
MAPK14 [16] = target: MAPK14 (UniProt Q16539); test: p38-alpha Inhibition
EGFR [17] = target: EGFR (UniProt P00533); remark: listed apart in the source
ROCK2 (human) [18] = target: ROCK2 (human) (UniProt O75116); test: Assessment of ROCK2 Kinase Activity (ProQinase Setup)
EGFR (murine) [19] = target: EGFR (murine) (UniProt P00533); conditions: nih3t3; remark: listed apart in the source
EGFR [20] = target: EGFR (UniProt P00533); remark: listed apart in the source

MAPK14, sequence (Q16539 whole entry, looked up): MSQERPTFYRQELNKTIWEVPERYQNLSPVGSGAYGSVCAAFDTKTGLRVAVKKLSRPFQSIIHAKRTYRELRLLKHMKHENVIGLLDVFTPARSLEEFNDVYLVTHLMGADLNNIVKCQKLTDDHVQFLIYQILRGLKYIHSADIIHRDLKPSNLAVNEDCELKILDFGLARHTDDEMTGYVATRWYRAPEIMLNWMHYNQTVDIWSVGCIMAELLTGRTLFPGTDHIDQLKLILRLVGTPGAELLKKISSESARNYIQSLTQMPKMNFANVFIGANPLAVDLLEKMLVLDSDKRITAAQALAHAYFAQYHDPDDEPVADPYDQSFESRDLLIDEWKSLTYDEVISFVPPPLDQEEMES
MAPK14 (human), sequence (Q16539 whole entry, looked up): as above
ROCK2 (human), sequence (O75116 whole entry, looked up): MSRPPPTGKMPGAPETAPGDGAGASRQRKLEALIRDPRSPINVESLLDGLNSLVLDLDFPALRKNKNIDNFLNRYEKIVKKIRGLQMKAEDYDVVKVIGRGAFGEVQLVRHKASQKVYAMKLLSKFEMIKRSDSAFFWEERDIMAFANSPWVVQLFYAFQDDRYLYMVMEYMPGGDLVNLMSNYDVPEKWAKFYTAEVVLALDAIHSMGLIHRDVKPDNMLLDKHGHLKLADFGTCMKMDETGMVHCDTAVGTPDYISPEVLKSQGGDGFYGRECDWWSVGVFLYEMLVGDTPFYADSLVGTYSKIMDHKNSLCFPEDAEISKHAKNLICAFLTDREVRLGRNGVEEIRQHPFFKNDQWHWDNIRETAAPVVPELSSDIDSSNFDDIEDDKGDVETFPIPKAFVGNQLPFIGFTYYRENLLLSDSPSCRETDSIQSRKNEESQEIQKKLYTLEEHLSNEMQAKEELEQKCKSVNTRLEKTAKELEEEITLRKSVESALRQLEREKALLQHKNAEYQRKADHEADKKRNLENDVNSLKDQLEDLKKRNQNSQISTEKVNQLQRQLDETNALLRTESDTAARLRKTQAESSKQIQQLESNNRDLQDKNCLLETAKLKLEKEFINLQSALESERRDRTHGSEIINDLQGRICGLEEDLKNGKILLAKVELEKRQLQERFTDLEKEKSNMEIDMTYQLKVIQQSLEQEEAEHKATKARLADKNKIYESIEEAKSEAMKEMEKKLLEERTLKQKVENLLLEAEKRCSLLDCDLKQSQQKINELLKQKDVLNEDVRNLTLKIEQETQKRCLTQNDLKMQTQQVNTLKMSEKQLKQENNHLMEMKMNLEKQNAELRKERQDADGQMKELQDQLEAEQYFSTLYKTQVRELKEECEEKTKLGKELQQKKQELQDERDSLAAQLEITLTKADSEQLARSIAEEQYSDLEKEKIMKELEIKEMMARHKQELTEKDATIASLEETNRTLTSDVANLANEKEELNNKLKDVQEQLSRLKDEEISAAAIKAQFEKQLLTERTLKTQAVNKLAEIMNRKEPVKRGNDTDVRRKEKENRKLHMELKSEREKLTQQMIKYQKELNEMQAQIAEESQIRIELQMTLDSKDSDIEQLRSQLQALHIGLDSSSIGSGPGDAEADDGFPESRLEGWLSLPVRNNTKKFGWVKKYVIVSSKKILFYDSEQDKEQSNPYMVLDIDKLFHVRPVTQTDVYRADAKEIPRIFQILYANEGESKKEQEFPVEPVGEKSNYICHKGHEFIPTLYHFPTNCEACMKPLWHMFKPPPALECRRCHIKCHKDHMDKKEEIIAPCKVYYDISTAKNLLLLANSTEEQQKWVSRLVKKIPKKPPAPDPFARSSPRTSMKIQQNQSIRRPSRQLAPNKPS
EGFR, sequence (P00533 whole entry, looked up): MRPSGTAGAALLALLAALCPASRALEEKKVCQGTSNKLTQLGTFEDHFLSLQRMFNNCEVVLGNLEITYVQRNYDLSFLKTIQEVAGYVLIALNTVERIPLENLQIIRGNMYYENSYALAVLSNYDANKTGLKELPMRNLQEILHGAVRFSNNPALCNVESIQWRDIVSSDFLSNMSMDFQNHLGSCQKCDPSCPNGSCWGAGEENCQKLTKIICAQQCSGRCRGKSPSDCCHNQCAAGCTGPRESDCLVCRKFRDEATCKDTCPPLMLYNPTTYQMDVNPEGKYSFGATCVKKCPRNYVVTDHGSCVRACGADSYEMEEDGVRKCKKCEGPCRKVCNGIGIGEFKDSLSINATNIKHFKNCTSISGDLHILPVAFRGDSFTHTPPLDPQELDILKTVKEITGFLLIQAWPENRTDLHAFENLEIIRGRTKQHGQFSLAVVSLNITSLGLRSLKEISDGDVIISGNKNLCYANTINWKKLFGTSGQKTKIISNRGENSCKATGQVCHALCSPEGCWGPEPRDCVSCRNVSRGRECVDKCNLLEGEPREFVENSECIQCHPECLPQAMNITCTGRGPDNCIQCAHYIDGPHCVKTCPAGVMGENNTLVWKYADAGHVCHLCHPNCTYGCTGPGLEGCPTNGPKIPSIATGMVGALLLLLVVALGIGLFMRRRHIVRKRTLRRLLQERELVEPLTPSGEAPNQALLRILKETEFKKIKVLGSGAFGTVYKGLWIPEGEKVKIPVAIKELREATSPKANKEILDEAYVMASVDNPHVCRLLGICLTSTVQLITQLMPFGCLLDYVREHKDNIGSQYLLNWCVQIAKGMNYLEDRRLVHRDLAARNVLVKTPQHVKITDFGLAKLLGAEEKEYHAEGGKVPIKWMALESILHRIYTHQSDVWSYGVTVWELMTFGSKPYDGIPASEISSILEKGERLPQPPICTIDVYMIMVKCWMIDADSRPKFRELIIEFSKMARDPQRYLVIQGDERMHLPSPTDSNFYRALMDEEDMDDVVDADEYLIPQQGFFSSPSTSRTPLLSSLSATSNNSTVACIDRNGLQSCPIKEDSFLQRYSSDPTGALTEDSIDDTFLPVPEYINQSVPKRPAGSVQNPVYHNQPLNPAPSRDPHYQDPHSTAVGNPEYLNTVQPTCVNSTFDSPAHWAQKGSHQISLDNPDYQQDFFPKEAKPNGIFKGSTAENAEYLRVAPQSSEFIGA
EGFR (murine), sequence (P00533 whole entry, looked up): as above
ROCK2, sequence (O75116 whole entry, looked up): as the sequence (O75116 whole entry, looked up) above

IC50 (EGFR [1]): 0.3 µM
SMILES: c1ccc2c(Nc3ccc4[nH]ccc4c3)ncnc2c1

IC50 (EGFR (human) [2]): > 100 µM
SMILES: Cn1c(SSc2c(C(=O)Nc3cccnn3)c3ccccc3n2C)c(C(=O)Nc2cccnc2)c2ccccc21

IC50 (EGFR [3]): 1.56 µM
SMILES: Cc1[nH]c2ncnc(N3CCc4ccccc43)c2c1C

IC50 (EGFR [4]): 0.007 µM
SMILES: CNc1ccc2ncnc(Nc3cccc(Br)c3)c2c1

IC50 (EGFR (mouse)): 2.83 µM
SMILES: COc1cc(O)c2c(=O)c(-c3cccc(Cl)c3)cn(C)c2c1

SMILES: COc1cc2ncnc(Nc3cccc(C#N)c3)c2cc1OC
IC50 (EGFR (murine) [5]): 0.2 µM | LD50 (EGFR (Balb/c mice)): > 153 mg/kg

IC50 (EGFR (human) [6]): 13 µM
SMILES: O=C1C2=C(C(=O)c3c(O)ccc(O)c31)[C@@H](O)[C@@H](O)[C@@H](O)C2

IC50 (EGFR (human) [7]): > 10 µM
SMILES: C[C@H](Nc1ncnc2ccccc12)c1ccccc1

IC50 (MAPK14 (human)): 2 µM
SMILES: COc1cc2c(Nc3cc(NC(=O)c4cccc(N(C)C)c4)ccc3C)ncnc2cc1OCCCN1CCOCC1

IC50 (EGFR [3]): 0.21 µM
SMILES: Nc1ccc(-c2cc3c(N4CCc5ccccc54)ncnc3[nH]2)cc1

activity (CDK2): 25% | activity (MAPK14 [8]): 86% | activity (ROCK2): 82%
SMILES: CN1CCCC1CCn1cc(C2=C(c3c[nH]c4ccccc34)C(=O)NC2=O)c2ccccc21 (centres undefined)

IC50 (MAPK14 (human)): 3.2 µM
SMILES: CCC(=O)Nc1cc(Nc2ncnc3cc(OC)c(OC)cc23)ccc1F

IC50 (EGFR [9]): > 50 µM
SMILES: Cc1cccc(N(C)c2ncnc3[nH]ncc23)c1

IC50 (ROCK2 (human) [10]): < 0.1 µM
SMILES: CCCOC(=O)c1cc(-c2cc(C(=O)Nc3ccncc3)ccc2C(C)N)c[nH]1 (centres undefined)

SMILES: Cc1ccc2ncnc(Nc3cccc(C(F)(F)F)c3)c2c1
IC50 (EGFR (murine) [5]): 0.9 µM | LD50 (EGFR (Balb/c mice)): > 400 mg/kg

IC50 (PIK3CA (human)): > 20 µM
SMILES: Cc1ccc([N+](=O)[O-])cc1S(=O)(=O)N(C)N=Cc1cnn2cc(Br)ccc12

IC50 (CDK2 (human) [11]): 0.15 µM | IC50 (CDK2 (human) [12]): 0.1 µM
SMILES: CC[C@@H](CO)Nc1cc(NCc2ccc(-c3ccccn3)cc2)c2ncn(C(C)C)c2n1

IC50 (MAPK14 [13]): 0.011 µM
SMILES: C[C@]1(C(=O)N2CCOCC2)CO[C@H](c2nc(-c3ccc(F)cc3)c(-c3ccnc(NCc4ccccn4)n3)[nH]2)OC1

IC50 (MAPK14 [14]): 177 µM
SMILES: c1cnc2c(c1)ccn2CCc1ccncc1

IC50 (MAPK14 [13]): > 30 µM
SMILES: COc1cc2ncnc(N3CCN(C(=S)NCc4ccccc4)CC3)c2cc1OC

IC50 (MAPK14 [14]): 1000 µM
SMILES: c1cncc(CCc2c[nH]c3ccccc23)c1

IC50 (EGFR [15]): 0.13 µM
SMILES: COc1ccc(N2Cc3cnc(Nc4ccc(O)cc4)nc3N(c3ccccc3)C2=O)cc1

IC50 (CDK2 (human) [11]): 0.42 µM | IC50 (CDK2 (human) [12]): 0.31 µM
SMILES: CC[C@@H](CO)Nc1cc(NCc2ccccc2)c2ncn(C(C)C)c2n1

IC50 (MAPK14 [16]): 0.068 µM
SMILES: COn1c(-c2ccncc2)c(-c2ccc(F)cc2)c2ncccc21

IC50 (EGFR [17]): 3.2 to 32 µM
SMILES: CN(C)c1ccc(C=C2C(=O)Nc3ccccc32)c2ccccc12

IC50 (EGFR [1]): 0.003 µM
SMILES: COc1cc2ncnc(Nc3ccc4[nH]ccc4c3)c2cc1OC

IC50 (ROCK2 (human) [18]): 0.1 to 1 µM
SMILES: NCc1ccc(C(=O)Nc2ccncc2F)cc1-c1cccc(CC(=O)OC2CC3CCC2C3)c1 (centres undefined)

IC50 (EGFR (murine) [19]): > 100 µM
SMILES: Cc1n[nH]cc1C(=O)Nc1ccc(C(F)(F)F)cc1

IC50 (EGFR [20]): 0.038 µM
SMILES: CN(C)CCCCNc1cc2ncnc(Nc3cccc(Br)c3)c2cn1

IC50 (ROCK2 (human) [10]): < 0.1 µM
SMILES: CC(N)c1ccc(C(=O)Nc2ccncc2)cc1-c1cccc(C(=O)OCc2ccncc2)c1 (centres undefined)

IC50 (MAPK14 [13]): > 30 µM
SMILES: COc1cc2ncnc(N3CCN(C(=S)NCc4ccc5c(c4)OCO5)CC3)c2cc1OC

IC50 (MAPK14 [16]): 2.5 µM
SMILES: ON1=CC=C(C=C1)c2[nH]c3cccnc3c2c4ccc(F)cc4

IC50 (EGFR (human) [2]): > 100 µM
SMILES: Cn1c(SSc2c(C(=O)Nc3ccccc3)c3cc(C(F)(F)F)ccc3n2C)c(C(=O)Nc2ccccc2)c2cc(C(F)(F)F)ccc21

IC50 (EGFR [1]): 10 µM
SMILES: COc1cc2ncnc(Nc3ccc4c(ccn4Cc4ccccc4)c3)c2cc1OC

IC50 (EGFR (human) [7]): 0.086 µM
SMILES: C[C@@H](Nc1ncnc2ccccc12)c1ccccc1

IC50 (MAPK14 [14]): 1000 µM
SMILES: Cc1ccc(S(=O)(=O)n2cc(/C=C/c3cccnc3)c3ccccc32)cc1

IC50 (EGFR (human) [7]): 0.01 to 0.05 µM
SMILES: C[C@@H](Nc1nc[nH]c2nc(-c3ccccc3)cc1-2)c1ccccc1

IC50 (EGFR [3]): 2.69 µM
SMILES: Cc1[nH]c2ncnc(N3CCCc4ccccc43)c2c1C

IC50 (EGFR (murine) [19]): > 100 µM
SMILES: Cc1nocc1C(=O)Nc1ccc(C(F)(F)F)cc1

IC50 (EGFR (murine) [19]): > 100 µM
SMILES: Cc1noc(C)c1C(=O)Nc1ccc(C(F)(F)F)cc1

IC50 (MAPK14 (human)): 5.2 µM
SMILES: COc1cc2c(Nc3cc(NC(=O)c4cccc(N(C)C)c4)ccc3C)ncnc2c(OC)c1OC

IC50 (EGFR (mouse)): 4.93 µM
SMILES: COc1cc(O)c2c(=O)c(-c3cccc(Cl)c3)cn(CCc3ccccc3)c2c1

IC50 (ROCK2 (human) [18]): 0.1 to 1 µM
SMILES: NCc1ccc(C(=O)Nc2ccncc2F)cc1-c1cccc(CC(=O)OCC2CCCC2)c1
